Laboratory results taken from patent US9073858B2, “Methods of targeted drug development” (priority 2010, dated 2015).

Assays:
[1] = Stability on incubation with mouse liver microsomes (MLM); format: in vitro ADME; conditions: percentage left after incubation with mouse liver microsomes for 30 minutes
Procedure: (§1) Stability of hydroxyquinoline analogs were determined (see e.g., TABLE 18). MLM represents the percentage left after incubation with mouse liver microsomes for 30 minutes. HLM represents the percentage left after incubation with human liver microsomes for 30 minutes.
(§2) Stability of analogs having a benzaldehyde derived ring were determined (see e.g., TABLE 18). MLM represents the percentage left after incubation with mouse liver microsomes for 30 minutes. HLM represents the percentage left after incubation with human liver microsomes for 30 minutes.

[2] = Stability on incubation with human liver microsomes (HLM); format: in vitro ADME; conditions: percentage left after incubation with human liver microsomes for 30 minutes
Procedure: as §1, §2

Row | SMILES | MLM % Remaining@ 30 Min [1] [%] | HLM % Remaining@ 30 Min [2] [%]
1 | Oc1c(C(Nc2ccc(F)cn2)c2ccc(C(F)(F)F)c(F)c2)ccc2cccnc12 (stereo not drawn) [AD4-13061] | 58 | 93
2 | Cc1nc(NC(c2ccc(Cl)c(Cl)c2)c2ccc3cccnc3c2O)c(Cl)cc1Cl (stereo not drawn) [AD4-13202] | 97 | 100
3 | Cc1cc(NC(c2ccc(C(F)(F)F)c(F)c2)c2ccc3cccnc3c2O)ncc1Cl (stereo not drawn) [AD4-13106] | 42 | 86
4 | Cc1cccc(NC(c2cc(Cl)cc(Cl)c2)c2cc(Cl)c3cccnc3c2O)n1 (stereo not drawn) [AD4-13076] | 28 | 70
5 | Oc1c(C(Nc2ccc(Cl)cn2)c2ccc(Cl)c(C(F)(F)F)c2)ccc2cccnc12 (stereo not drawn) [AD4-13067] | 46 | 89
6 | Oc1c(C(Nc2ccc(C(F)(F)F)cn2)c2ccc(F)cc2F)ccc2cccnc12 (stereo not drawn) [AD4-13029] | 77 | 76
7 | Cc1cc(Cl)cnc1NC(c1cc(C(F)(F)F)ccc1Cl)c1ccc2cccnc2c1O (stereo not drawn) [AD4-13058] | 60 | 75
8 | Cc1ccc2ccc(C(Nc3ncc(Cl)cc3C)c3ccc(Cl)cc3Cl)c(O)c2n1 (stereo not drawn) [AD4-13200] | 67 | 94
9 | Cc1ccnc(NC(c2ccc(Cl)c(Cl)c2)c2ccc3cccnc3c2O)c1 (stereo not drawn) [AD4-12917] | 11 | 53
10 | Cc1ccnc(NC(c2cc(Cl)cc(Cl)c2)c2ccc3cccnc3c2O)c1 (stereo not drawn) [AD4-12915] | 25 | 71
11 | Cc1cc(Cl)cnc1NC(c1ccc(C(F)(F)F)c(F)c1)c1ccc2cccnc2c1O (stereo not drawn) [AD4-13043] | 77 | 98
12 | Cc1cccc(NC(c2ccc3cccnc3c2O)c2c(F)cccc2Cl)n1 (stereo not drawn) [AD4-12959] | 15 | 42
13 | Cc1cccc(NC(c2cccc(C(F)(F)F)c2)c2ccc3cccnc3c2O)n1 (stereo not drawn) [AD4-12903] | 18 | 46
14 | Oc1c(C(Nc2ccc(C(F)(F)F)nc2)c2ccc(C(F)(F)F)c(F)c2)ccc2cccnc12 (stereo not drawn) [AD4-13051] | 40 | 72
15 | Cc1ccnc(NC(c2ccccc2Cl)c2ccc3cccnc3c2O)c1 (stereo not drawn) [AD4-12907] | 5 | 14
16 | Cc1cccc(NC(c2ccc(F)cc2Cl)c2ccc3cccnc3c2O)n1 (stereo not drawn) [AD4-13024] | 20 | 47
17 | Cc1cc(Cl)cnc1NC(c1ccc(F)cc1F)c1ccc2cccnc2c1O (stereo not drawn) [AD4-13068] | 46 | 96
18 | Oc1c(C(Nc2cccnc2)c2cccc(Cl)c2Cl)ccc2cccnc12 (stereo not drawn) [AD4-12908] | 6 | 48
19 | Cc1cccc(NC(c2ccc(OC(F)(F)F)cc2)c2ccc3cccnc3c2O)n1 (stereo not drawn) [AD4-12902] | 17 | 72
20 | Oc1c(C(Nc2cc(Cl)ccn2)c2ccc(F)cc2F)ccc2cccnc12 (stereo not drawn) [AD4-13045] | 26 | 77

Row | SMILES | MLM % Remaining@ 30 Min [1] [%] | HLM % Remaining@ 30 Min [2] [%]
21 | Cc1cccc(NC(c2cc(Cl)cc(Cl)c2)c2ccc3cccnc3c2O)n1 (stereo not drawn) [AD4-12913] | 41 | 61
22 | Cc1cc(NC(c2cc(Cl)cc(Cl)c2)c2ccc3cccnc3c2O)ncc1F (stereo not drawn) [AD4-13114] | 40 | 99
23 | Oc1c(C(Nc2ccc(Cl)cn2)c2ccc(Cl)c(Cl)c2)ccc2cccnc12 (stereo not drawn) [AD4-13054] | 46 | 80
24 | Cc1cc(NC(c2cccc(C(F)(F)F)c2)c2ccc3cccnc3c2O)ncc1Cl (stereo not drawn) [AD4-13107] | 28 | 83
25 | Cc1cccc(NC(c2cc(Cl)ccc2Cl)c2ccc3cccnc3c2O)n1 (stereo not drawn) [AD4-12955] | 41 | 61
26 | Oc1c(C(Nc2ccc(C(F)(F)F)cn2)c2cc(C(F)(F)F)ccc2Cl)ccc2cccnc12 (stereo not drawn) [AD4-13056] | 85 | 88
27 | COc1ccc(C(Nc2cccc(C)n2)c2ccc3cccnc3c2O)cc1O (stereo not drawn) [AD4-12909] | 13 | 50
28 | Oc1c(C(Nc2ccc(Cl)cn2)c2ccc(C(F)(F)F)cc2)ccc2cccnc12 (stereo not drawn) [AD4-13053] | 46 | 97
29 | Cc1cc(NC(c2cc(Cl)cc(Cl)c2)c2ccc3cccnc3c2O)ncc1Cl (stereo not drawn) [AD4-13122] | 60 | 94
30 | Cc1cccc(NC(c2ccc(Cl)cc2Cl)c2ccc3cccnc3c2O)n1 (stereo not drawn) [AD4-12911] | 17 | 57
31 | Cc1cccc(NC(c2ccc3cccnc3c2O)c2c(F)c(F)cc(F)c2F)n1 (stereo not drawn) [AD4-12918] | 15 | 51
32 | Cc1cc(Cl)cnc1NC(c1ccc2cccnc2c1O)c1c(F)c(F)cc(F)c1F (stereo not drawn) [AD4-13059] | 64 | 92
33 | Oc1c(C(Nc2ccc(C(F)(F)F)nc2)c2ccc(C(F)(F)F)cc2F)ccc2cccnc12 (stereo not drawn) [AD4-13065] | 47 | 83
34 | Oc1c(C(Nc2ccc(Cl)cn2)c2cc(Cl)cc(Cl)c2)ccc2cccnc12 (stereo not drawn) [AD4-13094] | 52 | 85
35 | Cc1cccc(NC(c2cc(Cl)cc(Cl)c2Cl)c2ccc3cccnc3c2O)n1 (stereo not drawn) [AD4-13023] | 60 | 95
36 | Cc1cc(NC(c2ccc(Cl)c(Cl)c2)c2ccc3cccnc3c2O)ncc1Cl (stereo not drawn) [AD4-13166] | 71 | 100
37 | Cc1cccc(NC(c2ccc(C)c(F)c2F)c2ccc3ccc(C)nc3c2O)n1 (stereo not drawn) [AD4-13022] | 5 | 36
38 | Oc1c(C(Nc2ccc(C(F)(F)F)nc2)c2ccc(C(F)(F)F)cc2)ccc2cccnc12 (stereo not drawn) [AD4-13063] | 42 | 80
39 | Cc1cccc(NC(c2cc(Cl)cc(Cl)c2)c2ccc3ccc(C)nc3c2O)n1 (stereo not drawn) [AD4-13075] | 13 | 64
